Experimental data from PMC9518264, “Design and synthesis of novel quinazolinone-based derivatives as EGFR inhibitors with antitumor activity” (Journal of Enzyme Inhibition and Medicinal Chemistry, 2022).

What was measured:
CCRF-CEM = test: cells; type: cell-based; details: Homo sapiens, 10 μM, read-out: growth inhibition % (GI%)
K-562 = test: cells; type: cell-based; details: Homo sapiens, K562; K-562; 10 μM; read-out: growth inhibition % (GI%)
MOLT-4 = test: cells; type: cell-based; details: Homo sapiens; MOLT-4; 10 μM; read-out: growth inhibition % (GI%)
RPMI-8226 = test: cells; type: cell-based; details: Homo sapiens; RPMI-8226; 10 μM; read-out: growth inhibition % (GI%)
SR = test: cells; type: cell-based; details: Homo sapiens, 10 μM, read-out: growth inhibition % (GI%)
A549/ATCC = test: cells; type: cell-based; details: Homo sapiens; A549/ATCC; 10 μM; read-out: growth inhibition % (GI%)
EKVX = test: cells; type: cell-based; details: Homo sapiens, 10 μM, read-out: growth inhibition % (GI%)
HOP-62 = test: cells; type: cell-based; details: Homo sapiens; HOP-62; 10 μM; read-out: growth inhibition % (GI%)
HOP-92 = test: cells; type: cell-based; details: Homo sapiens; HOP-92; 10 μM; read-out: growth inhibition % (GI%)
NCI-H322M = test: cells; type: cell-based; details: Homo sapiens, 10 μM, read-out: growth inhibition % (GI%)
NCI-H460 = test: cells; type: cell-based; details: Homo sapiens; NCI-H460; 10 μM; read-out: growth inhibition % (GI%)
COLO-205 = test: cells; type: cell-based; details: Homo sapiens; COLO-205; 10 μM; read-out: growth inhibition % (GI%)
HCT-116 = test: cells; type: cell-based; details: Homo sapiens; HCT-116; 10 μM; read-out: growth inhibition % (GI%)
HT29 = test: cells; type: cell-based; details: Homo sapiens, HT-29; HT29; 10 μM; read-out: growth inhibition % (GI%)
KM12 = test: cells; type: cell-based; details: Homo sapiens; KM12; 10 μM; read-out: growth inhibition % (GI%)
SW-620 = test: cells; type: cell-based; details: Homo sapiens; SW-620; 10 μM; read-out: growth inhibition % (GI%)
SF-268 = test: cells; type: cell-based; details: Homo sapiens; SF-268; 10 μM; read-out: growth inhibition % (GI%)
SF-295 = test: cells; type: cell-based; details: Homo sapiens; SF-295; 10 μM; read-out: growth inhibition % (GI%)
SF-539 = test: cells; type: cell-based; details: Homo sapiens; SF-539; 10 μM; read-out: growth inhibition % (GI%)
SNB-19 = test: cells; type: cell-based; details: Homo sapiens; SNB-19; 10 μM; read-out: growth inhibition % (GI%)
U251 = test: cells; type: cell-based; details: Homo sapiens, U-251; U251; 10 μM; read-out: growth inhibition % (GI%)
LOX IMIV = test: cells; type: cell-based; details: Homo sapiens, 60 cell; LOX IMIV; 10 μM; read-out: growth inhibition % (GI%)
MALME-3M = test: cells; type: cell-based; details: Homo sapiens; MALME-3M; 10 μM; read-out: growth inhibition % (GI%)
MDA-MB-435 = test: cells; type: cell-based; details: Homo sapiens; MDA-MB-435; 10 μM; read-out: growth inhibition % (GI%)
SK-MEL-2 = test: cells; type: cell-based; details: Homo sapiens; SK-MEL-2; 10 μM; read-out: growth inhibition % (GI%)
SK-MEL-28 = test: cells; type: cell-based; details: Homo sapiens; SK-MEL-28; 10 μM; read-out: growth inhibition % (GI%)
SK-MEL-5 = test: cells; type: cell-based; details: Homo sapiens; SK-MEL-5; 10 μM; read-out: growth inhibition % (GI%)
UACC-62 = test: cells; type: cell-based; details: Homo sapiens; UACC-62; 10 μM; read-out: growth inhibition % (GI%)
IGROV1 = test: cells; type: cell-based; details: Homo sapiens, IGROV-1; IGROV1; 10 μM; read-out: growth inhibition % (GI%)
OVCAR-5 = test: cells; type: cell-based; details: Homo sapiens; OVCAR-5; 10 μM; read-out: growth inhibition % (GI%)
OVCAR-8 = test: cells; type: cell-based; details: Homo sapiens; OVCAR-8; 10 μM; read-out: growth inhibition % (GI%)
NCI/ADR-RES = test: cells; type: cell-based; details: Homo sapiens, 10 μM, read-out: growth inhibition % (GI%)
SK-OV-3 = test: cells; type: cell-based; details: Homo sapiens; SK-OV-3; 10 μM; read-out: growth inhibition % (GI%)
786-0 = test: cells; type: cell-based; details: Homo sapiens; 786-0; 10 μM; read-out: growth inhibition % (GI%)
A498 = test: cells; type: cell-based; details: Homo sapiens; A498; 10 μM; read-out: growth inhibition % (GI%)
ACHN = test: cells; type: cell-based; details: Homo sapiens, 10 μM, read-out: growth inhibition % (GI%)
SN12C = test: cells; type: cell-based; details: Homo sapiens, 10 μM, read-out: growth inhibition % (GI%)
UO-31 = test: cells; type: cell-based; details: Homo sapiens; UO-31; 10 μM; read-out: growth inhibition % (GI%)
PC-3 = test: cells; type: cell-based; details: Homo sapiens; PC-3; 10 μM; read-out: growth inhibition % (GI%)
DU-145 = test: cells; type: cell-based; details: Homo sapiens; DU-145; 10 μM; read-out: growth inhibition % (GI%)
MCF7 = test: cells; type: cell-based; details: Homo sapiens; MCF7; 10 μM; read-out: growth inhibition % (GI%)
MDA-MB-231/ATCC = test: NCI 60 cell line antiproliferative screening (SRB), Breast cancer; type: cell-based; details: Homo sapiens, MDA-MB-231, read-out: growth inhibition % (GI%)
HS 578T = test: cells; type: cell-based; details: Homo sapiens; HS 578T; 10 μM; read-out: growth inhibition % (GI%)
BT-549 = test: cells; type: cell-based; details: Homo sapiens; BT-549; 10 μM; read-out: growth inhibition % (GI%)
T-47D = test: cells; type: cell-based; details: Homo sapiens, T47D; T-47D; 10 μM; read-out: growth inhibition % (GI%)
[1] = test system: panel of 60 tumour cell lines; test: NCI 60 cell line antiproliferative screening (SRB), whole panel or subpanels (means, ranges, words); type: cell-based, human
MDA-MB-468 = test: NCI 60 cell line antiproliferative screening (SRB), Breast cancer; details: Homo sapiens, MDA-MB-468, read-out: growth inhibition % (GI%)

For `O=C(CSc1nc2ccccc2c(=O)n1-c1ccc(Cl)cc1)NN=Cc1ccc(Oc2ccc(Br)cc2)cc1` [6e, N'-(4–(4-bromophenoxy)benzylidene)-2-((3–(4-chlorophenyl)-4-oxo-3,4-dihydroquinazolin-2-yl)thio)acetohydrazide], the inhibition at 10 µM (CCRF-CEM) was less than 15%, the inhibition at 10 µM (K-562) was less than 15% and the inhibition at 10 µM (MOLT-4) was less than 15%. The inhibition at 10 µM (RPMI-8226) was less than 15%, the inhibition at 10 µM (SR) was less than 15% and the inhibition at 10 µM (A549/ATCC) was less than 15%. The inhibition at 10 µM (EKVX) was less than 15%, the inhibition at 10 µM (HOP-62) was less than 15% and the inhibition at 10 µM (HOP-92) was less than 15%. It also gave an inhibition at 10 µM (NCI-H322M) of less than 15%, an inhibition at 10 µM (NCI-H460) of less than 15% and an inhibition at 10 µM (COLO-205) of less than 15%. It also gave an inhibition at 10 µM (HCT-116) of less than 15%, an inhibition at 10 µM (HT29) of less than 15% and an inhibition at 10 µM (KM12) of less than 15%. The inhibition at 10 µM (SW-620) was less than 15%, the inhibition at 10 µM (SF-268) was less than 15% and the inhibition at 10 µM (SF-295) was less than 15%. It also gave an inhibition at 10 µM (SF-539) of less than 15%, an inhibition at 10 µM (SNB-19) of less than 15% and an inhibition at 10 µM (U251) of less than 15%. The inhibition at 10 µM (LOX IMIV) was less than 15%, the inhibition at 10 µM (MALME-3M) was less than 15% and the inhibition at 10 µM (MDA-MB-435) was less than 15%. It also gave an inhibition at 10 µM (SK-MEL-2) of less than 15%, an inhibition at 10 µM (SK-MEL-28) of less than 15% and an inhibition at 10 µM (SK-MEL-5) of less than 15%. For the same compound, the inhibition at 10 µM (UACC-62) was less than 15%, the inhibition at 10 µM (IGROV1) was less than 15% and the inhibition at 10 µM (OVCAR-5) was less than 15%. It also gave an inhibition at 10 µM (OVCAR-8) of less than 15%, an inhibition at 10 µM (NCI/ADR-RES) of less than 15% and an inhibition at 10 µM (SK-OV-3) of less than 15%. The inhibition at 10 µM (786-0) was less than 15%, the inhibition at 10 µM (A498) was 15.7% and the inhibition at 10 µM (ACHN) was less than 15%. The inhibition at 10 µM (SN12C) was less than 15%, the inhibition at 10 µM (UO-31) was 20.8% and the inhibition at 10 µM (PC-3) was less than 15%. For the same compound, the inhibition at 10 µM (DU-145) was less than 15%, the inhibition at 10 µM (MCF7) was less than 15% and the inhibition at 10 µM (MDA-MB-231/ATCC) was less than 15%. The inhibition at 10 µM (HS 578T) was less than 15%, the inhibition at 10 µM (BT-549) was less than 15% and the inhibition at 10 µM (T-47D) was less than 15%. For the same compound, the “antiproliferative activity against all tested cell lines” value ([1]; 10 μM single dose) was “abolishing the antiproliferative activity”, the inhibition at 10 µM ([1]; Homo sapiens, 60 cell, mean over the cell line panel, 10 μM, read-out: Mean growth inhibition % (mean GI%)) was less than 0% and the inhibition at 10 µM (MDA-MB-468) was less than 15%.
